According to patent US9822124B2, “Bicyclic heteroaromatic carboxamide compounds useful as Pim kinase inhibitors” (Incyte Corporation, priority 2014, dated 2017):

Key:
Type in all cases: biochemical
Pim-1 = Pim-1 (Homo sapiens (Human), UniProt P11309); experiment: Pim-1 kinase assay (AlphaScreen, Biotin-labeled BAD peptide substrate); conditions: 1 mM ATP; read-out: Pim1 IC50
Method: (§1) Pim-1 and Pim-3 kinase assays—20 μL reactions were run in white 384 well polystyrene plates dotted with 0.8 μL compound/DMSO in the assay buffer (50 mM Tris, pH 7.5, 0.01% Tween-20, 5 mM MgCl2, 0.01% BSA, 5 mM DTT), containing 0.05 μM Biotin-labeled BAD peptide substrate (AnaSpec 62269), 1 mM ATP, and […] (Pim-1, Invitrogen PV3503) or […] (Pim-3, Millipore 14-738) enzyme for 1 h at 25° C. Reactions were stopped by addition of 10 μL STOP Buffer (150 mM Tris, pH=7.5, 150 mM NaCl, 75 mM EDTA, 0.01% Tween-20, 0.3% BSA) supplemented with Phospho-Bad (Ser112) Antibody (Cell Signaling 9291) diluted 666-fold, and Streptavidin donor beads (PerkinElmer 6760002) along with Protein-A acceptor beads (PerkinElmer 6760137) at 15 μg/mL each. Supplementation of the STOP buffer with beads and stopping the reactions were done under reduced light. Prior to the stopping reactions STOP buffer with beads was preincubated for 1 h in the dark at room temperature. After stopping the reactions, plates were incubated for 1 h in the dark at room temperature before reading on a PHERAstar FS plate reader (BMG Labtech) under reduced light.

Pim-2 = Pim-2 (Homo sapiens (Human), UniProt Q9P1W9); experiment: Pim-2 kinase assay (TR-FRET, Fluorescein-labeled CREBtide peptide substrate); conditions: 1 mM ATP; read-out: Pim2 IC50
Chain of Pim-2 (Q9P1W9 whole entry): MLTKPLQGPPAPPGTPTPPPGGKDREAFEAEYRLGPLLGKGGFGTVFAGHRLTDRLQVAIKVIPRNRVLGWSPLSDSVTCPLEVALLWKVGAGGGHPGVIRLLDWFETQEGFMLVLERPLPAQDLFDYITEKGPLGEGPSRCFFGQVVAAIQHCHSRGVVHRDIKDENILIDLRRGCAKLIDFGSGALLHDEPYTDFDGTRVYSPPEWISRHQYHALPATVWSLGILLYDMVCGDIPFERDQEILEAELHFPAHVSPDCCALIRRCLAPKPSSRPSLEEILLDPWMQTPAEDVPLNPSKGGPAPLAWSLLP
Method: Pim-2 kinase assay—20 μL reactions were run in white 384 well polystyrene plates dotted with 0.8 μL compound/DMSO in the assay buffer (50 mM Tris, pH 7.5, 0.01% Tween-20, 5 mM MgCl2, 0.01% BSA, 5 mM DTT), containing 0.05 μM Fluorescein-labeled CREBtide peptide substrate (Invitrogen PV3508), 1 mM ATP, and 1 nM enzyme (Invitrogen PV3649) for 2 h at 25° C. Reactions were stopped by addition of 10 μL TR-FRET Dilution Buffer (Invitrogen PV3574) with 30 mM EDTA and 1.5 nM LanthaScreen Tb-CREB pSer133 antibody (Invitrogen PV3566). After 30 min. incubation at room temperature, plates were read on a PHERAstar FS plate reader (BMG Labtech).

Pim-3 = Pim-3 (Homo sapiens (Human), UniProt Q86V86); experiment: Pim-3 kinase assay (AlphaScreen, Biotin-labeled BAD peptide substrate); conditions: 1 mM ATP; read-out: Pim3 IC50
Method: as §1

Chain of Pim-1 (P11309 whole entry): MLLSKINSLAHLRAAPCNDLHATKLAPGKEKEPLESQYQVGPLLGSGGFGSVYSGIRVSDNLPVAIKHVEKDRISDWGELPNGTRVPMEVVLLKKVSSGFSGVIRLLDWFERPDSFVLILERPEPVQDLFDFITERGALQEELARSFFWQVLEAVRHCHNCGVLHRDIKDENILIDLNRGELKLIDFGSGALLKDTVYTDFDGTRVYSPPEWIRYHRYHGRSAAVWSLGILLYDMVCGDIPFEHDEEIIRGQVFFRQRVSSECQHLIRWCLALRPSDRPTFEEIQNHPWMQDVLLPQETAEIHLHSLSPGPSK

Compound	IC50 (Pim-1) [nM]	IC50 (Pim-2) [nM]	IC50 (Pim-3) [nM]
C[C@H]1CN(c2ccncc2NC(=O)c2ccc3sc(Cc4ccccc4)cc3n2)C[C@@H](N)[C@@H]1O [Example 42, N-(4-((3R,4R,5S)-3-Amino-4-hydroxy-5-methylpiperidin-1-yl)pyridin-3-yl)-2-benzylthieno[3,2-b]pyridine-5-carboxamide]	≤ 10	100 to 1000	≤ 10
COc1ccc(-c2cc3nc(C(=O)Nc4cnccc4N4C[C@@H](N)[C@H](O)[C@@H](C)C4)ccc3s2)cn1 [Example 43, N-(4-((3R,4R,5S)-3-Amino-4-hydroxy-5-methylpiperidin-1-yl)pyridin-3-yl)-2-(6-methoxypyridin-3-yl)thieno[3,2-b]pyridine-5-carboxamide]	≤ 10	100 to 1000	≤ 10
C[C@H]1CN(c2ccncc2NC(=O)c2ccc3sc(-c4ccc(N5CCOCC5)nc4)cc3n2)C[C@@H](N)[C@@H]1O [Example 44, N-(4-((3R,4R,5S)-3-Amino-4-hydroxy-5-methylpiperidin-1-yl)pyridin-3-yl)-2-(6-morpholinopyridin-3-yl)thieno[3,2-b]pyridine-5-carb oxamide]	≤ 10	100 to 1000	≤ 10
COc1cc(F)c(-c2cc3nc(C(=O)Nc4cnccc4N4C[C@@H](N)[C@H](O)[C@@H](C)C4)ccc3s2)c(F)c1 [Example 45, N-(4-((3R,4R,5S)-3-Amino-4-hydroxy-5-methylpiperidin-1-yl)pyridin-3-yl)-2-(2,6-difluoro-4-methoxyphenyl)thieno[3,2-b]pyridine-5-carboxamide]	≤ 10	100 to 1000	≤ 10
C[C@H]1CN(c2ccncc2NC(=O)c2ccc3sc(-c4ccccc4)cc3n2)C[C@@H](N)[C@@H]1O [Example 46, N-(4-((3R,4R,5S)-3-Amino-4-hydroxy-5-methylpiperidin-1-yl)pyridin-3-yl)-2-phenylthieno[3,2-b]pyridine-5-carboxamide]	≤ 10	100 to 1000	≤ 10
C[C@H]1CN(c2ccncc2NC(=O)c2ccc3sc(C4CC4)cc3n2)C[C@@H](N)[C@@H]1O [Example 47, N-(4-((3R,4R,5S)-3-Amino-4-hydroxy-5-methylpiperidin-1-yl)pyridin-3-yl)-2-cyclopropylthieno[3,2-b]pyridine-5-carboxamide]	≤ 10	≤ 100	≤ 10
C[C@H]1CN(c2ccncc2NC(=O)c2ccc3sc(-c4cnn(C)c4)cc3n2)C[C@@H](N)[C@@H]1O [Example 48, N-(4-((3R,4R,5S)-3-Amino-4-hydroxy-5-methylpiperidin-1-yl)pyridin-3-yl)-2-(1-methyl-1H-pyrazol-4-yl)thieno[3,2-b]pyridine-5-carboxamide]	≤ 10	≤ 100	≤ 10
Cc1cc2nc(C(=O)Nc3cnccc3N3C[C@@H](N)[C@H](O)[C@@H](C)C3)ccc2s1 [Example 49, N-(4-((3R,4R,5S)-3-Amino-4-hydroxy-5-methylpiperidin-1-yl)pyridin-3-yl)-2-methylthieno[3,2-b]pyridine-5-carboxamide]	≤ 10	100 to 1000	≤ 10
CCCc1cc2nc(C(=O)Nc3cnccc3N3C[C@H](C)C[C@H](N)C3)ccc2s1 [Example 50, N-(4-((3S,5R)-3-Amino-5-methylpiperidin-1-yl)pyridin-3-yl)-2-propylthieno[3,2-b]pyridine-5-carboxamide]	≤ 10	≤ 100	≤ 10
CC(C)c1cc2nc(C(=O)Nc3cnccc3N3C[C@H](C)C[C@H](N)C3)ccc2s1 [Example 51, N-(4-((3S,5R)-3-Amino-5-methylpiperidin-1-yl)pyridin-3-yl)-2-isopropylthieno[3,2-b]pyridine-5-carboxamide]	≤ 10	≤ 100	≤ 10
C[C@@H]1C[C@H](N)CN(c2ccncc2NC(=O)c2ccc3sc(-c4c(F)cccc4F)cc3n2)C1 [Example 52, N-(4-((3S,5R)-3-Amino-5-methylpiperidin-1-yl)pyridin-3-yl)-2-(2,6-difluorophenyl)thieno[3,2-b]pyridine-5-carboxamide]	≤ 10	100 to 1000	≤ 10
C[C@@H]1C[C@H](N)CN(c2ccncc2NC(=O)c2ccc3sc(-c4ccccc4F)cc3n2)C1 [Example 53, N-(4-((3S,5R)-3-Amino-5-methylpiperidin-1-yl)pyridin-3-yl)-2-(2-fluorophenyl)thieno[3,2-b]pyridine-5-carboxamide]	≤ 10	100 to 1000	≤ 10
C[C@@H]1C[C@H](N)CN(c2ccncc2NC(=O)c2ccc3sc(Cc4ccccc4)cc3n2)C1 [Example 54, N-(4-((3S,5R)-3-Amino-5-methylpiperidin-1-yl)pyridin-3-yl)-2-benzylthieno[3,2-b]pyridine-5-carboxamide]	≤ 10	100 to 1000	≤ 10
COc1ccc(-c2cc3nc(C(=O)Nc4cnccc4N4C[C@H](C)C[C@H](N)C4)ccc3s2)cn1 [Example 55, N-(4-((3S,5R)-3-Amino-5-methylpiperidin-1-yl)pyridin-3-yl)-2-(6-methoxypyridin-3-yl)thieno[3,2-b]pyridine-5-carboxamide]	≤ 10	100 to 1000	≤ 10
C[C@@H]1C[C@H](N)CN(c2ccncc2NC(=O)c2ccc3sc(-c4ccc(N5CCOCC5)nc4)cc3n2)C1 [Example 56, N-(4-((3S,5R)-3-Amino-5-methylpiperidin-1-yl)pyridin-3-yl)-2-(6-morpholinopyridin-3-yl)thieno[3,2-b]pyridine-5-carboxamide]	≤ 10	100 to 1000	≤ 10
COc1cc(F)c(-c2cc3nc(C(=O)Nc4cnccc4N4C[C@H](C)C[C@H](N)C4)ccc3s2)c(F)c1 [Example 57, N-(4-((3S,5R)-3-Amino-5-methylpiperidin-1-yl)pyridin-3-yl)-2-(2,6-difluoro-4-methoxyphenyl)thieno[3,2-b]pyridine-5-carboxamide]	≤ 10	100 to 1000	≤ 10
C[C@@H]1C[C@H](N)CN(c2ccncc2NC(=O)c2ccc3sc(-c4ccccc4)cc3n2)C1 [Example 58, N-(4-((3S,5R)-3-Amino-5-methylpiperidin-1-yl)pyridin-3-yl)-2-phenylthieno[3,2-b]pyridine-5-carboxamide]	≤ 10	100 to 1000	≤ 10
C[C@@H]1C[C@H](N)CN(c2ccncc2NC(=O)c2ccc3sc(C4CC4)cc3n2)C1 [Example 59, N-(4-((3S,5R)-3-Amino-5-methylpiperidin-1-yl)pyridin-3-yl)-2-cyclopropylthieno[3,2-b]pyridine-5-carboxamide]	≤ 10	≤ 100	≤ 10
C[C@@H]1C[C@H](N)CN(c2ccncc2NC(=O)c2ccc3sc(-c4cnn(C)c4)cc3n2)C1 [Example 60, N-(4-((3S,5R)-3-Amino-5-methylpiperidin-1-yl)pyridin-3-yl)-2-(1-methyl-1H-pyrazol-4-yl)thieno[3,2-b]pyridine-5-carboxamide]	≤ 10	≤ 100	≤ 10
Cc1cc2nc(C(=O)Nc3cnccc3N3C[C@H](C)C[C@H](N)C3)ccc2s1 [Example 61, N-(4-((3S,5R)-3-Amino-5-methylpiperidin-1-yl)pyridin-3-yl)-2-methylthieno[3,2-b]pyridine-5-carboxamide]	≤ 10	100 to 1000	≤ 10
